Structures can show the parent of a compound that is named as a salt.
Tests used:
[1] = target: HUMAN D3 DOPAMINERGIC RECEPTOR (Homo sapiens, UniProt P35462); assay: biochemical; conditions: read-out: Ki VALUE (inhibition constant for binding of [^125 I]iodosulpiride)
Description: The inhibition constants for the binding of [^125 I]iodosulpiride to the D3 receptor were measured as described in the French Patent Application filed by INSERM on 6th Nov. 1990 under No. 90/13731.

[2] = system: dopamine receptors; assay: Antagonism of apomorphine-induced rearing in mice (dopamine receptor blockade in vivo); conditions: i.p.
Description: (§1) The capacity to bring about a blockade of the dopamine receptors in vivo was evaluated for some of the compounds according to the invention. The tests used were the antagonism of stereotyped sniffing and rearing induced by apomorphine in mice. These tests have been described by Protais et al. (Psychopharmacology, 1976, 50:1-6) and by Vasse et al. (Naunyn Schmiedeberg's Arch. Pharmacol., 1985, 329:108-116).

[3] = system: dopamine receptors; assay: Antagonism of apomorphine-induced stereotyped sniffing in mice (dopamine receptor blockade in vivo); conditions: Mus musculus, ip, read-out: ID50 for the antagonism of sniffing
Description: as §1

UniProt P35462, sequence (P35462 whole entry): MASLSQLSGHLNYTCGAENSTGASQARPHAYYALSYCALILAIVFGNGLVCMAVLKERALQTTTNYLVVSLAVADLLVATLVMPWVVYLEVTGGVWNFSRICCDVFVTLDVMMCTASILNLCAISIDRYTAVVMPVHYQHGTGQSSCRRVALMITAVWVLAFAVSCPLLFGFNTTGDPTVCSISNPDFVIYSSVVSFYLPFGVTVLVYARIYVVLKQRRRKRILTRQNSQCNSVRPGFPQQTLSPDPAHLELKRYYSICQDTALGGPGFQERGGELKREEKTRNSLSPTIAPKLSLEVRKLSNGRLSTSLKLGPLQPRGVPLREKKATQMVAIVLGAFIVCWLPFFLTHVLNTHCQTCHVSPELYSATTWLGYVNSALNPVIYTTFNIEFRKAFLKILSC

Compound | Ki [1] | also measured
CCN1CCCC1CNC(=O)c1ccc2ccccc2c1OC (stereo not drawn) [Example 4, N-[(N-Ethyl-2-pyrrolidinyl)methyl]-1-methoxy-2-naphthamide] | 35 nM | 
CCCCN1CCCC1CNC(=O)c1cc(Br)c2ccccc2c1OC (stereo not drawn) [Example 1, N-[(N-1-butyl-2-pyrrolidinyl)methyl]-1-methoxy-4-bromo-2-naphthamide hydrochloride] | 0.24 nM | 
CCN1CCCC1CNC(=O)c1cc(Cl)c2ccccc2c1OC (stereo not drawn) [Example 8, 4-Chloro-N-[(N-ethyl-2-pyrrolidinyl)methyl]-1-methoxy-2-naphthamide hydrochloride] | 0.26 nM | ED50 ([2]; Mus musculus, ip, apomorphine-induced rearing, read-out: ID50 for the antagonism of rearing): 0.16 mg/kg; crossing of the blood-brain barrier ([2]; inferred from ID50 values for rearing and sniffing): readily crosses the blood-brain barrier; ED50 [3]: 0.42 mg/kg
C=CCN1CCCC1CNC(=O)c1cc(C#N)c2ccccc2c1OC (stereo not drawn) [Example 2, N-[(N-allyl-2-pyrrolidinyl)methyl]-1-methoxy-4-cyano-2-naphthamide] | 0.51 nM | 
CCN1CCCC1CNC(=O)c1cc([N+](=O)[O-])c2ccccc2c1OC (stereo not drawn) [Example 6, 4-Nitro-N-[(N-ethyl-2-pyrrolidinyl)methyl]-1-methoxy-2-naphthamide] | 0.3 nM | 

More lines, main results first:

Ki [1] | Compound | also measured
0.35 nM | C=CCN1CCCC1CNC(=O)c1cc([N+](=O)[O-])c2ccccc2c1OC (stereo not drawn) [Example 17] | 
1.7 nM | COc1c(C(=O)NCC2CCCN2Cc2ccccc2)cc([N+](=O)[O-])c2ccccc12 (stereo not drawn) [Example 12, 4-Nitro-N-[(N-benzyl-2-pyrrolidinyl)methyl]-1-methoxy-2-naphthamide] | 
4.7 nM | COc1c(C(=O)NCC2CCCN2Cc2ccccc2)cc(Cl)c2ccccc12 (stereo not drawn) [Example 13, 4-Chloro-N-[(N-benzyl-2-pyrrolidinyl)methyl]-1-methoxy-2-naphthamide] | 
91 nM | COc1c(C(=O)NCC2CCCN2Cc2ccccc2)ccc2ccccc12 (stereo not drawn) [Example 11, N-[(N-Benzyl-2-pyrrolidinyl)methyl]-1-methoxy-2-naphthamide hydrochloride] | 
